The record followed here is patent US8785653B2, “(3-aryl-1H-1,2,4-triazol-5-yl)-linked heterocycle derivatives” (H. Lundbeck A/S, priority 2009, dated 2014).

The test has as its target T1, PDE10A enzyme (Homo sapiens, UniProt Q9Y233).
T1 construct: made in house; host or cells: E. coli BL21(DE3)
Kind of test: PDE10A inhibition assay. The test is classed as biochemical. The settings on record: 3H-labelled cAMP substrate 5 nM, SPA beads, one hr at room temperature. How it is done: Active PDE10A enzyme is prepared in a number of ways for use in PDE assays (Loughney, K. et al. Gene 1999, 234, 109-117; Fujishige, K. et al. Eur J Biochem. 1999, 266, 1118-1127 and Soderling, S. et al. Proc. Natl. Acad. Sci. 1999, 96, 7071-7076). PDE10A can be expressed as full-length proteins or as truncated proteins, as long as they express the catalytic domain. PDE10A can be prepared in different cell types, for example insect cells or E. coli. An example of a method to obtain catalytically active PDE10A is as follows: The catalytic domain of human PDE10A (amino acids 440-779 from the sequence with accession number NP 006652) is amplified from total human brain total RNA by standard RT-PCR and is cloned into the BamH1 and Xho1 sites of the pET28a vector (Novagen). Expression in coil is performed according to standard protocols. Briefly, the expression plasmids are transformed into the BL21(DE3) E. coli strain, and 50 mL cultures inoculated with the cells allowed to grow to an OD600 of 0.4-0.6 before protein expression is induced with 0.5mM IPTG. Following induction, the cells are incubated overnight at room temperature, after which the cells are collected by centrifugation. Cells expressing PDE10A are resuspended in 12 mL (50 mM TRIS-HCl-pH8.0, 1 mM MgCl2 and protease inhibitors). The cells are lysed by sonication, and after all cells are lysed, TritonX100 is added according to Novagen protocols.
A PDE10A assay may for example, be performed as follows: The assay is performed in 60 uL samples containing a fixed amount of the relevant PDE enzyme (sufficient to convert 20-25% of the cyclic nucleotide substrate), a buffer (50 mM HEPES7.6; 10 mM MgCl2; 0.02% Tween20), 0.1 mg/mI BSA, 225 pCi of ^3H-labelled cyclic nucleotide substrate, tritium labeled cAMP to a final concentration of 5 nM and varying amounts of inhibitors. Reactions are initiated by addition of the cyclic nucleotide substrate, and reactions are allowed to proceed for one hr at room temperature before being terminated through mixing with 15 uL 8 mg/mL yttrium silicate SPA beads (Amersham). The beads are allowed to settle for one hr in the dark before the plates are counted in a Wallac 1450 Microbeta counter. The measured signal can be converted to activity relative to an uninhibited control (100%) and IC50 values can be calculated using the XIfit extension to EXCEL.

T1 sequence (Q9Y233 716-1055): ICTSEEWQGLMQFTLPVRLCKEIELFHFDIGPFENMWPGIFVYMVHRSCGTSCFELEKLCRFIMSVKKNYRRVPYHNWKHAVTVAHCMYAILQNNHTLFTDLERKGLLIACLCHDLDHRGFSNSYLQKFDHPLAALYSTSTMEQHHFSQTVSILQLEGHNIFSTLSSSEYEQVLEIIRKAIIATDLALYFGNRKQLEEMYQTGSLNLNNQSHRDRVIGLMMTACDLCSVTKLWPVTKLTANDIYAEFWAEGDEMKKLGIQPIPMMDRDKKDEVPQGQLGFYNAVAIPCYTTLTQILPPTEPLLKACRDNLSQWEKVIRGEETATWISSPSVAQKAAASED

By IC50 is commonly meant the point on the concentration scale where inhibition reaches its midpoint. Lower therefore signals higher potency. As for `COc1ccc(C)n2nc(CCc3nc(-c4ccccc4)nn3C(C)C)nc12` [2-[2-(2-Isopropyl-5-phenyl-2H-[1,2,4]triazol-3-yl)-ethyl]-8-methoxy-5-methyl-[1,2,4]triazolo[1,5-a]pyridine], half-maximal inhibition (IC50) required 56 nM.

In turn, `Cc1ncc(C)n2nc(CCc3nc(-c4ccco4)n(C)n3)nc12` [2-[2-(5-Furan-2-yl-1-methyl-1H-[1,2,4]triazol-3-yl)-ethyl]-5,8-dimethyl-[1,2,4]triazolo[1,5-a]pyrazine] had an IC50 of 38 nM.

`Cc1ncc(C)n2nc(CCc3nc(-c4ccco4)nn3C)nc12` [2-[2-(5-Furan-2-yl-2-methyl-2H-[1,2,4]triazol-3-yl)-ethyl]-5,8-dimethyl-[1,2,4]triazolo[1,5-a]pyrazine] had an IC50 of 4.6 nM.

`Cc1ncc(C)n2nc(/C=C/c3nc(-c4ccco4)n(C)n3)nc12` [2-[(E)-2-(5-Furan-2-yl-1-methyl-1H-[1,2,4]triazol-3-yl)-vinyl]-5,8-dimethyl-[1,2,4]triazolo[1,5-a]pyrazine] gave an IC50 of 60 nM.

Compound `COCCn1nc(-c2ccccc2)nc1CCc1nc2c(C)ncc(C)n2n1` [2-{2-[2-(2-Methoxy-ethyl)-5-phenyl-2H-[1,2,4]triazol-3-yl]-ethyl}-5,8-dimethyl-[1,2,4]triazolo[1,5-a]pyrazine] yielded an IC50 of 14 nM.

For the compound `Cc1ncc(C)n2nc(CCc3nc(-c4ccccc4)nn3CCO)nc12` [2-{5-[2-(5,8-Dimethyl-[1,2,4]triazolo[1,5-a]pyrazin-2-yl)-ethyl]-3-phenyl-[1,2,4]triazol-1-yl}-ethanol], the IC50 came to 69 nM.

In the case of `COc1ccc(C)n2nc(CCc3nc(-c4ccccc4)nn3CCO)nc12` [2-{5-[2-(8-Methoxy-5-methyl-[1,2,4]triazolo[1,5-a]pyridin-2-yl)-ethyl]-3-phenyl-[1,2,4]triazol-1-yl}-ethanol], it took 23 nM to reach half-maximal inhibition (IC50).

Consider `CCc1ccc(C)n2nc(CCc3nc(-c4ccccc4)cn3CCCN)nc12` [3-{2-[2-(8-Ethyl-5-methyl-[1,2,4]triazolo[1,5-a]pyridin-2-yl)-ethyl]-4-phenyl-imidazol-1-yl}-propylamine], for which the IC50 is 150 nM.

For `Cc1ncc(C)n2nc(CCc3nc(-c4ccccc4)nn3CCC#N)nc12` [3-{5-[2-(5,8-Dimethyl-[1,2,4]triazolo[1,5-a]pyrazin-2-yl)-ethyl]-3-phenyl-[1,2,4]triazol-1-yl}-propionitrile], half-maximal inhibition (IC50) required 25 nM.

With `Cc1ncc(C)n2nc(CCc3nc(-c4ccccc4)nn3CCCN)nc12` [3-{5-[2-(5,8-Dimethyl-[1,2,4]triazolo[1,5-a]pyrazin-2-yl)-ethyl]-3-phenyl-[1,2,4]triazol-1-yl}-propylamine], the IC50 worked out at 100 nM.

With `CCc1ccc(C)n2nc(CCc3nc(-c4ccccc4)nn3CCC#N)nc12` [3-{5-[2-(8-Ethyl-5-methyl-[1,2,4]triazolo[1,5-a]pyridin-2-yl)-ethyl]-3-phenyl-[1,2,4]triazol-1-yl}-propionitrile], 14 nM corresponded to half-maximal inhibition (IC50).

The compound `COc1ccc(C)n2nc(CCc3nc(-c4ccccc4)nn3CCC#N)nc12` [3-{5-[2-(8-Methoxy-5-methyl-[1,2,4]triazolo[1,5-a]pyridin-2-yl)-ethyl]-3-phenyl-[1,2,4]triazol-1-yl}-propionitrile] returned an IC50 of 45 nM.

Take `Cc1cc(C)n2nc(CCc3nc(-c4ccccc4)nn3C)nc2n1` [5,7-Dimethyl-2-[2-(2-methyl-5-phenyl-2H-[1,2,4]triazol-3-yl)-ethyl]-[1,2,4]triazolo[1,5-a]pyrimidine]: inhibition was half-maximal at 59 nM (IC50).

The compound `Cc1ncc(C)n2nc(CSc3nc(-c4ccccc4)n[nH]3)nc12` [5,8-Dimethyl-2-(5-phenyl-2H-[1,2,4]triazol-3-ylsulfanylmethyl)-[1,2,4]triazolo[1,5-a]pyrazine] showed an IC50 of 53 nM.

`Cc1ncc(C)n2nc(CCc3nc(-c4ncco4)nn3C)nc12` [5,8-Dimethyl-2-[2-(2-methyl-5-oxazol-2-yl-2H-[1,2,4]triazol-3-yl)-ethyl]-[1,2,4]triazolo[1,5-a]pyrazine] displayed an IC50 of 120 nM.

The compound `Cc1ncc(C)n2nc(CCc3nc(-c4ccccc4)nn3C)nc12` [5,8-Dimethyl-2-[2-(2-methyl-5-phenyl-2H-[1,2,4]triazol-3-yl)-ethyl]-[1,2,4]triazolo[1,5-a]pyrazine] returned an IC50 of 15 nM.

`Cc1ccc(C)n2nc(CCc3nc(-c4ccccc4)nn3C)nc12` [5,8-Dimethyl-2-[2-(2-methyl-5-phenyl-2H-[1,2,4]triazol-3-yl)-ethyl]-[1,2,4]triazolo[1,5-a]pyridine] gave an IC50 of 6.7 nM.

`Cc1cnc(C)n2nc(CCc3nc(-c4ccccc4)nn3C)nc12` [5,8-Dimethyl-2-[2-(2-methyl-5-phenyl-2H-[1,2,4]triazol-3-yl)-ethyl]-[1,2,4]triazolo[1,5-c]pyrimidine] returned an IC50 of 36 nM.

Take `Cc1ncc(C)n2nc(CCc3nc(-c4ccccn4)nn3C)nc12` [5,8-Dimethyl-2-[2-(2-methyl-5-pyridin-2-yl-2H-[1,2,4]triazol-3-yl)-ethyl]-[1,2,4]triazolo[1,5-a]pyrazine]: 39 nM corresponded to half-maximal inhibition (IC50).

The compound `Cc1ncc(C)n2nc(CCc3nc(-c4cccnc4)nn3C)nc12` [5,8-Dimethyl-2-[2-(2-methyl-5-pyridin-3-yl-2H-[1,2,4]triazol-3-yl)-ethyl]-[1,2,4]triazolo[1,5-a]pyrazine] had an IC50 of 110 nM.

`Cc1ncc(C)n2nc(CCc3nc(-c4ncccn4)nn3C)nc12` [5,8-Dimethyl-2-[2-(2-methyl-5-pyrimidin-2-yl-2H-[1,2,4]triazol-3-yl)-ethyl]-[1,2,4]triazolo[1,5-a]pyrazine] gave an IC50 of 53 nM.

Consider `Cc1ncc(C)n2nc(CCc3nc(-c4nccs4)nn3C)nc12` [5,8-Dimethyl-2-[2-(2-methyl-5-thiazol-2-yl-2H-[1,2,4]triazol-3-yl)-ethyl]-[1,2,4]triazolo[1,5-a]pyrazine], for which the IC50 was 36 nM.

`Cc1ncc(C)n2nc(CCc3nc(-c4cscn4)nn3C)nc12` [5,8-Dimethyl-2-[2-(2-methyl-5-thiazol-4-yl-2H-[1,2,4]triazol-3-yl)-ethyl-]-[1,2,4]triazolo[1,5-a]pyrazine] came in with an IC50 of 25 nM.

As for `Cc1ncc(C)n2nc(CCc3nc(-c4cncs4)nn3C)nc12` [5,8-Dimethyl-2-[2-(2-methyl-5-thiazol-5-yl-2H-[1,2,4]triazol-3-yl)-ethyl]-[1,2,4]triazolo[1,5-a]pyrazine], half-maximal inhibition (IC50) required 26 nM.

`Cc1ncc(C)n2nc(CCc3nc(-c4cccs4)nn3C)nc12` [5,8-Dimethyl-2-[2-(2-methyl-5-thiophen-2-yl-2H-[1,2,4]triazol-3-yl)-etnyl]-[1,2,4]triazolo[1,5-a]pyrazine] displayed an IC50 of 5.6 nM.

Compound `Cc1ncc(C)n2nc(CCc3nc(-c4ccsc4)nn3C)nc12` [5,8-Dimethyl-2-[2-(2-methyl-5-thiophen-3-yl-2H-[1,2,4]triazol-3-yl)-ethyl]-[1,2,4]triazolo[1,5-a]pyrazine] gave an IC50 of 5.3 nM.

As for `Cc1csc(-c2nc(CCc3nc4c(C)ncc(C)n4n3)n(C)n2)n1` [5,8-Dimethyl-2-{2-[2-methyl-5-(4-methyl-thiazol-2-yl)-2H-[1,2,4]triazol-3-yl]-ethyl}-[1,2,4]triazolo[1,5-a]pyrazine], the IC50 worked out at 76 nM.

In turn, `Cc1cnc(-c2nc(CCc3nc4c(C)ncc(C)n4n3)n(C)n2)s1` [5,8-Dimethyl-2-{2-[2-methyl-5-(5-methyl-thiazol-2-yl)-2H-[1,2,4]triazol-3-yl]-ethyl}-[,2,4]triazolo[1,5-a]pyrazine] had an IC50 of 120 nM.

The compound `Cc1cccc2nc(CSc3nc(-c4ccccc4)n[nH]3)nn12` [5-Methyl-2-(5-phenyl-2H-[1,2,4]triazol-3-ylsulfanylmethyl)-[1,2,4]triazolo[1,5-a]pyridine] returned an IC50 of 200 nM.

With `Cc1cccc2nc(CCc3nc(-c4ccccc4)nn3C)nn12` [5-Methyl-2-[2-(2-methyl-5-phenyl-2H-[1,2,4]triazol-3-yl)-ethyl]-[1,2,4]triazolo[1,5-a]pyridine], the IC50 was 220 nM.

With `CCc1ccc(C)n2nc(CCc3nc(-c4ccccc4)nn3C(C)C)nc12` [8-Ethyl-2-[2-(2-isopropyl-5-phenyl-2H-[1,2,4]triazol-3-yl)-ethyl]-5-methyl-[1,2,4]triazolo[1,5-a]pyridine], the IC50 came to 40 nM.

With `CCc1ccc(C)n2nc(CCc3nc(-c4ccccc4)nn3C)nc12` [8-Ethyl-5-methyl-2-[2-(2-methyl-5-phenyl-2H-[1,2,4]triazol-3-yl)-ethyl]-[1,2,4]triazolo[1,5-a]pyridine], it took 7.5 nM to reach half-maximal inhibition (IC50).
